Data: patent publication US10426736B2, “Delivering functional nucleic acids to mammalian cells via bacterially-derived, intact minicells” (EnGenelC Molecular Delivery Pty. Ltd., priority 2004, dated 2019)

Key:
Caco-2 cell xenograft [1] = test: Dosing schedule time-course, Caco-2 xenograft, 5-FU (Example 7); format: in vivo, nude mice; settings: free drug, 1×10^6 ng/dose, intravenous
Description: The experiment described in example 6 was repeated with the same controls and experimental groups except that G2 received free 5-FU (1×10^6 ng/dose) and in G3, G4 and G5, the second treatment was carried out with ^EGFRminicells5-FU. Minicells were administered at 1×10^9 per dose and each dose carried ˜80 ng 5-FU, i.e., ˜12,500-fold lower than free drug administration in G2 mice.

[2] = tested on: human breast adenocarcinoma cell line, MDA-MB-468; test: Doxorubicin sensitivity of MDA-MB-468 cell line; format: cell-based; settings: parental MDA-MB-468
Caco-2 cell xenograft [3] = test: Dosing schedule time-course, Caco-2 xenograft, irinotecan (Example 6); format: in vivo, nude mice; settings: free drug, ~2.4×10^5 ng/dose, intravenous
Description: Allowing sufficient time for efficient delivery of shRNA to the tumor cells before the receptor-targeted, drug-packaged minicells are administered improves the results. A time-course experiment was performed, wherein ^EGFRminicellsshRNA-MDR-1 were administered intravenously in nude mice carrying Caco-2 cell xenograft. In separate groups (n=11 mice per group), mice were given ^EGFRminicellsIrino either at 96 hr (G3), 120 hr (G4) or 144 hr (G5) after the ^EGFRminicellsshRNA-MDR-1 treatment. G1 and G2 were tumor only and free irinotecan (˜2.4×10^5 ng/dose) controls. The minicells were administered at 5×10^8 per dose and each dose carried ˜80 ng of irinotecan packaged in minicells, which is a 3,000-fold lower dose than that administered as free drug.

[4] = tested on: Human colon cancer cell line Caco-2; test: MTT cell proliferation assay, reversal of drug resistance in-vitro; settings: single treatment; 72 hrs; free drugs 25 μM; MTT read at 490 nm
Description: Caco-2 cells were seeded at 3×10^6 cells/flask in Minimum Essential Medium with 10% cosmic calf serum and incubated for 3 hours at 37° C., 5% CO2.
The cells were treated with (a) ^EGFRminicellsshRNA-MDR-1, and (b) ^EGFRminicellsshRNA-nonsense. […] Minicells were added at a concentration of 10^10 per flask and all flasks were incubated for 72 hrs. The cells from each treatment were trypsinised and seeded at 1×10^4 cells/ml/well in 24-well plates and were incubated for 3 hrs at 37° C., 5% CO2. The control untreated cells were then incubated with (6 wells/treatment) (a) free irinotecan (25 μM), (b) free 5-FU (25 μM), (c) ^EGFRminicellsIrino, and (d) ^EGFRminicells5-FU.
The ^EGFRminicellsshRNA-MDR-1 treated Caco-2 cells were incubated with (6 wells/treatment) (a) ^CMV minicells5-FU (non-specifically targeted since the bispecific antibody is targeted to a surface protein on cytomegalovirus), (b) free irinotecan, (c) free 5-FU EGFR, (d) ^EGFRminicellsIrino, and (e) ^EGFRminicells5-FU. […]
All cells were incubated for a further 72 hrs followed by the colorimetric MTT cell proliferation assay (Cory et al., 1991) using the CellTiter 96 AQueous One Solution Cell Proliferation Assay (Promega Corp., Madison, Wis., USA), according to the manufacturer's instructions. The colorimetric measurements were read at 490 nm.

O=c1[nH]cc(F)c(=O)[nH]1 [5-FU, 5-fluorouracil]
effect on tumor growth (FIG. 6) (Caco-2 cell xenograft [1]): no effect

COc1cccc2c1C(=O)c1c(O)c3c(c(O)c1C2=O)C[C@@](O)(C(=O)CO)C[C@@H]3O[C@H]1C[C@H](N)[C@H](O)[C@H](C)O1 [doxorubicin]
sensitivity of cell line to drug [2]: highly sensitive

CCc1c2c(nc3ccc(OC(=O)N4CCC(N5CCCCC5)CC4)cc13)-c1cc3c(c(=O)n1C2)COC(=O)[C@]3(O)CC [irinotecan]
effect on tumor growth (FIG. 5) (Caco-2 cell xenograft [3]): no effect
resistance of Caco-2 cells to treatment (cell viability, FIG. 1) [4]: highly resistant
